{"source": "patent US4528378A", "about": "“Substituted 3,4-diamino-1,2,5-thiadiazoles having histamine H2 -receptor antagonist activity” (Bristol-Myers Company, priority 1984, dated 1985)", "origin": "cited, not measured here", "tested_on": "peptic ulcer disease", "settings": "Gray et al., Lancet, 1, 8001 (1977)", "data": [{"smiles": "CN/C(=N/CCSCc1nc[nH]c1C)NC#N", "note": "[cimetidine]", "values": [{"measurement": "clinical efficacy in treatment of peptic ulcer disease", "value": "effective therapeutic agent in the treatment of peptic ulcer disease"}]}]}
